Results on seven compounds are retold here after patent EP0326331B1, “Substituted quinolines and cinnolines” (Dow AgroSciences LLC, priority 1988, dated 1989).

Common to all, as to type: in vivo
Data set [1] deals with Botrytis cinerea (gray mold). Put plainly: Test 1 greenhouse foliar spray screen, gray mold on grape berries. The following applies: for pest or weed control at 400 ppm: Botrytis cinerea, foliar, Test 1, spray on grape berries, disease control rating at 400 ppm / 100 ppm.
For data set [2], the system named is Venturia inaequalis (apple scab). Put plainly: Test 1 greenhouse foliar spray screen, apple scab on apple seedling. To be noted: for pest or weed control at 400 ppm: Venturia inaequalis, Test 1, foliar spray on apple seedling, disease control rating at 400 ppm / 100 ppm, read-out: APPL SCAB.
For data set [3], the system named is Erysiphe graminis tritici (powdery mildew). Put plainly: Test 1 greenhouse foliar spray screen, powdery mildew on wheat. The following applies: for pest or weed control at 400 ppm: Blumeria graminis, foliar, Test 1, foliar spray on wheat, disease control rating at 400 ppm / 100 ppm, read-out: POWD MDEW.
The test system of data set [4] is Puccinia recondita tritici (leaf rust). Put plainly: Test 1 greenhouse foliar spray screen, leaf rust on wheat. To be noted: for pest or weed control at 400 ppm: Puccinia recondita, foliar, Test 1, foliar spray on wheat, disease control rating at 400 ppm / 100 ppm.
In data set [5] the test system is Twospotted spider mites (Tetranychus urticae Koch). Briefly: Mite/insect screen, SM. To be noted: for mortality at 200 ppm / mortality at 400 ppm: Tetranychus urticae, foliar, foliar spray on squash, read-out: SM RESULTS %; for mortality at 200 ppm / mortality at 400 ppm / SM RESULTS %: percent mortality; for mortality at 200 ppm: rate 200 ppm; for mortality at 400 ppm: rate 400 ppm; for activity as miticides: summary statement in the description; for SM RESULTS %: SAW. An outline of the steps: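 Compounds dissolved in 50:50 acetone/alcohol containing sulfonate/nonionic emulsifier blends, then diluted with water to the indicated concentrations. Leaves sprayed on both surfaces to runoff at 10 psi and dried one hour. Percent mortality scored after standard exposure periods.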

The subject of data set [6] is Cercospora beticola (leaf spot). Briefly: Test 1 greenhouse foliar spray screen, leaf spot on sugar beet. To be noted: for pest or weed control at 400 ppm: Cercospora beticola, Test 1, foliar spray on sugar beet, disease control rating at 400 ppm / 100 ppm.
For data set [7], the system named is Pyricularia oryzae (rice blast). Briefly: whole plant or invertebrate. The following applies: for pest or weed control at 400 ppm: Pyricularia oryzae, foliar, read-out: RICE BLAST, Test 1, foliar spray on rice, disease control rating at 400 ppm / 100 ppm.
Data set [8] relates to melon aphids (Aphis gossypii Glover). Put plainly: Mite/insect screen, MA. To be noted: percent mortality; for mortality at 200 ppm / mortality at 400 ppm: Aphis gossypii, foliar, foliar spray on squash, read-out: MA RESULTS %; for mortality at 200 ppm: rate 200 ppm; for mortality at 400 ppm: rate 400 ppm; for MA RESULTS %: SAW. The gist of the method: (§1)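 Formulation: acetone/alcohol 50:50 + sulfonate/nonionic emulsifiers, water-diluted to indicated concs. Spray both leaf surfaces to runoff, 10 psi; dry 1 h. Armyworm: 2 excised uninfested leaves in Petri dish. Score % mortality after standard exposure.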

In data set [9] the test system is southern armyworm (Spodopetra eridania Cramer). Briefly: Mite/insect screen, SAW. To be noted: percent mortality; for mortality at 200 ppm / mortality at 400 ppm: Spodoptera eridania, foliar, foliar spray on squash, read-out: SAW RESULTS %; for mortality at 200 ppm: rate 200 ppm; for mortality at 400 ppm: rate 400 ppm. The gist of the method:
as §1

Data set [10] has as its system Septoria tritici (leaf blotch). Briefly: Test 1 greenhouse foliar spray screen, leaf blotch on wheat. To be noted: for pest or weed control at 400 ppm: Zymoseptoria tritici, Test 1, foliar spray on wheat, disease control rating at 400 ppm / 100 ppm, read-out: LEAF BLOT.
Data set [11] relates to Pseudoperonospora cubensis (downy mildew). Briefly: Test 1 greenhouse foliar spray screen, downy mildew on squash. The following applies: for pest or weed control at 400 ppm: Pseudoperonospora cubensis, foliar, Test 1, foliar spray on squash, disease control rating at 400 ppm / 100 ppm, read-out: DOWN MDEW.
In another data set the test system is corn rootworm. Put plainly: Mite/insect screen, CRW. To be noted: percent mortality; for mortality at 12 ppm: CRW rate 12.00 ppm; for mortality at 12 ppm / mortality at 24 ppm: read-out: CRW RESULTS %; for mortality at 24 ppm: CRW rate 24.00 ppm. The gist of the method: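 Percent mortality is evaluated once the standard exposure period ends. Test material is applied as a water dilution of an acetone/alcohol (50:50) stock carrying two sulfonate/nonionic emulsifiers (23 and 13 g per liter).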

Setting [12] is: disease control rating, foliar spray on wheat, 400 ppm (+++ at 100 ppm).

`Cc1ccc(CCOc2ccnc3c(OCCc4ccc(C)cc4)cccc23)cc1` [Example 251, 4,8-bis[2-(4-methylphenyl)ethoxy]quinoline]: the pest or weed control at 400 ppm in [1] was in the range of 0 to 19%; in data set [2], 0 to 19%; in [3], 0 to 19%; in data set [4], 0 to 19%; in data set [6], 0 to 19%; in data set [7], 20 to 89%. Also, the figures for the pest or weed control at 400 ppm in data set [10] and in data set [11] were 0 to 19% and 20 to 89%, respectively. Further, the mortality at 200 ppm in [5], in data set [8] and in data set [9] was 0% in each case. For the same compound, in the data set with corn rootworm, the mortality at 12 ppm was 0%.
In the case of `c1ccc(CCCc2ccnc3ccccc23)cc1` [Example 252, 4-(3-phenylpropyl)quinoline], the pest or weed control at 400 ppm in data set [1] was 0 to 19%; in data set [2] it was 20 to 89%; in data set [3], 90 to 100%; in data set [4] it was 90 to 100%; in data set [6], 0 to 19%; in data set [7] it was 90 to 100%. Further, the pest or weed control at 400 ppm in [10] was 20 to 89%; in data set [11], 90 to 100%. Also, the mortality at 200 ppm amounted to 90% in data set [5], 100% in [8] and 0% in [9]. The mortality at 400 ppm in [5] was found to be 90%; in data set [8], 100%; in [9], 0%. Moreover, in the data set with corn rootworm, the mortality at 12 ppm is 0%. In addition, the mortality at 24 ppm in the data set on corn rootworm was 0%.
With `Fc1cccc2c(CCCc3ccccc3)ccnc12` [Example 253, 8-fluoro-4-(3-phenylpropyl)quinoline], the pest or weed control at 400 ppm in data set [1] was 0 to 19%; in data set [2] it was 90 to 100%; in data set [3] it was 90 to 100%; in [4], 90 to 100%; in data set [6] it was 20 to 89%; in data set [7] it was 90 to 100%. Besides, the pest or weed control at 400 ppm in data set [10] is 20 to 89%; in data set [11] it was 90 to 100%. Further, the mortality at 200 ppm in [5] came to 100%; in [8], 90%; in [9], 0%. For the same compound, the mortality at 400 ppm in data set [5] came out at 100%; in data set [8], 100%; in [9] it was 0%. The activity as miticides result in data set [5] is recorded as “particularly excellent activity”. Also, in the data set with corn rootworm, the mortality at 12 ppm came to 0%. Besides, the mortality at 24 ppm in the data set on corn rootworm worked out at 0%.
Turning to `Cc1ccc(CCCc2ccnc3c(F)cccc23)cc1` [Example 258, 8-fluoro-4-[3-(4-methylphenyl)propyl]quinoline], the pest or weed control at 400 ppm in [1] was 0 to 19%; in data set [2] it was 0 to 19%; in [3], 90 to 100%; in [4], 90 to 100%; in data set [6] it was 20 to 89%; in [7] it was 90 to 100%. Moreover, the pest or weed control at 400 ppm is 20 to 89% in data set [10] and 90 to 100% in data set [11]. For the same compound, the mortality at 400 ppm stood at 90% in [5], 100% in data set [8] and 0% in data set [9]. For the same compound, the activity as miticides entry in data set [5] was “particularly excellent activity”. The mortality at 24 ppm in the data set on corn rootworm came to 0%.
For `Fc1cccc2c(CCCc3cccc(C(F)(F)F)c3)ccnc12` [Example 259, 8-fluoro-4-[3-[3-(trifluoromethyl)phenyl]propyl]quinoline], the pest or weed control at 400 ppm in data set [1] lay in the range of 20 to 89%; in [2], 90 to 100%; in data set [3], 20 to 89%; in data set [4], 90 to 100%; in data set [6], 0 to 19%; in data set [7], 90 to 100%. The pest or weed control at 400 ppm in data set [10] and in data set [11] was 90 to 100% each time. For the same compound, the mortality at 200 ppm in [5] was 100%; in data set [8] it was 90%; in data set [9], 0%. For the same compound, the mortality at 400 ppm in [5] worked out at 80%; in [8] it was 80%; in data set [9] it was 0%. Besides, in data set [5], the activity as miticides entry is listed as “particularly excellent activity”. The mortality at 12 ppm in the data set with corn rootworm was determined as 0%. Moreover, in the data set on corn rootworm, the mortality at 24 ppm amounted to 0%.
As to `Fc1cccc2c(CCCc3ccc(Cl)cc3)ccnc12` [Example 261, 4-[3-(4-chlorophenyl)propyl]-8-fluoroquinoline], the pest or weed control at 400 ppm in [1] lay within 0 to 19%; in [2] it was 20 to 89%; in data set [3], 20 to 89%; in [4] it was 90 to 100%; in data set [6], 0 to 19%; in data set [7], 20 to 89%. The pest or weed control at 400 ppm in data set [10] and in data set [11] was 20 to 89% throughout. In addition, the mortality at 200 ppm in data set [5] was found to be 90%; in [8], 100%; in data set [9], 100%. Besides, the values for the mortality at 400 ppm in [5], in [8] and in data set [9] were 50%, 100% and 80%, respectively. The mortality at 12 ppm in the data set on corn rootworm worked out at 0%. Moreover, the mortality at 24 ppm with corn rootworm stood at 100%.
Consider “N-[2-(2,3,4,5,6-tetramethylphenyl)ethyl]-8-fluoro-4-quinolinamine [Example 112]”, for which the “GRAY MOLD” value in [1] (disease control rating, spray on grape berries, 400 ppm (+++ at 100 ppm)) is on record as “- (0-19% control at 400 ppm)”. Besides, the “APPL SCAB” value in data set [2] (disease control rating, foliar spray on apple seedling, 400 ppm (+++ at 100 ppm)) is recorded as “- (0-19% control at 400 ppm)”. In addition, the “POWD MDEW” value in data set [3] (setting [12]) is “- (0-19% control at 400 ppm)”. Also, in data set [4] (setting [12]), the “LEAF RUST” value is on record as “+ (20-89% control at 400 ppm)”. The “SM RESULTS %” value in data set [5] (SM & MA RATE 200 PPM) and in data set [5] (SM & MA RATE 400 PPM) was 0% in each case. The “LEAF SPOT” value in [6] (disease control rating, foliar spray on sugar beet, 400 ppm (+++ at 100 ppm)) is “- (0-19% control at 400 ppm)”. The “RICE BLAST” value in data set [7] (disease control rating, foliar spray on rice, 400 ppm (+++ at 100 ppm)) is listed as “- (0-19% control at 400 ppm)”. The “MA RESULTS %” value in [8] (SM & MA RATE 200 PPM) and in data set [8] (SM & MA RATE 400 PPM) was 0% in each case. Also, the “SAW RESULTS %” value in [9] (SM & MA RATE 200 PPM) and in [9] (SM & MA RATE 400 PPM) was 0% throughout. For the same compound, the “LEAF BLOT” value in [10] (setting [12]) is “- (0-19% control at 400 ppm)”. Moreover, the “DOWN MDEW” value in data set [11] (disease control rating, foliar spray on squash, 400 ppm (+++ at 100 ppm)) is “+++ (90-100% control at 100 ppm)”. Also, the “CRW RESULTS %” value in the data set on corn rootworm (CRW RATE 12.00 PPM) and with corn rootworm (CRW RATE 24.00 PPM) was 0% each time.
